According to the METLIN SMRT retention time set (Domingo-Almenara et al. 2019):

Assay: gradient 5% acetonitrile 3 min, to 50% in 2 min, to 85% in 15 min, held 3 min, 100 µL/min
Details: column: Zorbax Extend-C18 2.1 x 50 mm; eluents: water / acetonitrile, 0.1% formic acid
Summary of the method: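 Over 3 months, pure standards in mixtures of ~100 molecules were run by HPLC coupled to a quadrupole time-of-flight mass spectrometer in positive and negative ionization mode. The column was a Zorbax Extend-C18 (2.1 × 50 mm, 1.8 μm) at 100 μL/min, eluted with water and acetonitrile each holding 0.1% formic acid, with 40 μL dead and 900 μL dwell volumes. Retention time was determined from adduct peaks chosen by software and checked manually.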

Row | Structure (SMILES) | RP-LC retention time [s]
1 | Cn1c(=O)n(Cc2cccc(Cl)c2)c(=O)c2cnc(-c3ccncc3)nc21 | 922
2 | COc1cccc(-c2nc3ccc(Cl)cn3c2Nc2ccc(Cl)cc2)c1 | 873
3 | O=C(NC1CCCCC1)c1ccc(CN2CCN(C3CCCC3)C(=O)C2=O)cc1 | 831
4 | CC(=O)N1CCCn2nc(-c3cccc(F)c3)cc2C1 | 722
5 | O=C(Nc1nc2c(s1)CN(C(=O)Cn1c(=O)oc3ccccc31)CC2)C1CCCO1 (stereo unspecified) | 665
6 | CCCNC(=O)N(C1CCOCC1)C1CCN(C(=O)c2cnccn2)CC1 | 611
7 | CCn1cc(CCN2CCC(C(=O)NC(C)C)CC2)c2cccnc21 | 567
8 | COc1ccc2c(c1)CCc1sc(NC(=O)c3cccc(Br)c3)nc1-2 | 1240
9 | O=C(CC1CCCC1)Nc1cnc(-c2ccccc2)nc1 | 990
10 | COc1cccc(CNC(=O)C2(C)CCCN(C(=O)Nc3ccc(Br)cc3)C2)c1 (stereo unspecified) | 969
11 | CCOC(=O)C1=C(CN2CCC(C)CC2)NC(=O)NC1c1ccc(C)cc1 (stereo unspecified) | 656
12 | O=C(c1ccc(Cl)cc1)N1CCCCC1CCN1CCOCC1 (stereo unspecified) | 637
13 | COc1ccc(C(=O)N2CCN(c3nc(CN4CCOCC4)cs3)CC2)cc1 | 833
14 | O=C(c1ccc(F)c(F)c1)N1CCCC1c1nc(-c2ccccc2Cl)no1 (stereo unspecified) | 1000
15 | CCCCc1nnc(NC(=O)C2CCN(C(=O)c3ccc(Cl)cc3)CC2)s1 | 852
16 | Cc1ccccc1S(=O)(=O)N1CCC(CCC(=O)O)CC1 | 807
17 | CCNC(=O)c1ccc(-n2nc(C)c(C)c2C)nc1 | 758
18 | CCN(CC)CCCNc1ccc(-c2nc(-c3cccc(F)c3)no2)cn1 | 707
19 | O=C(c1cnccn1)N1CCCC1c1nc(-c2cccc(C(F)(F)F)c2)no1 (stereo unspecified) | 798
20 | Cc1nc2c(ccc3nc(NC(=O)c4ccc(N5C(=O)CCC5=O)cc4)sc32)s1 | 717
21 | O=C(Nc1ccc(-c2nc(-c3ccc(F)cc3)no2)cc1)c1ccc(Br)o1 | 1200
22 | NC(N)=N/N=C(\c1ccc(Cl)cc1)C1CC1 | 665
23 | Cc1nc(-c2cc(S(=O)(=O)Nc3ccc(Br)cc3F)c(C)s2)cs1 | 1070

Row | Structure (SMILES) | RP-LC retention time [s]
24 | COc1ccc(-c2nc(Nc3cnc(SC)nc3)sc2C)cc1 | 1050
25 | CC(=O)NS(=O)(=O)c1ccc(NC(=O)NC2CC(=O)N(c3ccc(C)cc3)C2)cc1 (stereo unspecified) | 651
26 | CCOCCCNS(=O)(=O)c1cc(-c2cc(C)[nH]n2)sc1C | 720
27 | Cc1cccc(-c2noc(Cn3ncn4nc(-c5ccc(Br)cc5)cc4c3=O)n2)c1 | 1260
28 | COc1ccc(-c2nc(N3CCCCC3)c3ccccc3n2)cc1 | 777
29 | CCCN(C)C(=O)C1c2ccccc2CC(=O)N1Cc1ccccc1 (stereo unspecified) | 828
30 | Cn1cc(S(=O)(=O)N2CCCCC2)cc1C(=O)N1CCCCC1 | 833
31 | O=C(CCc1c(-c2ccc(F)cc2)nc2ccccn12)NCc1ccccc1Cl | 779
32 | Cc1ccc(-c2nc(-c3ccc(S(=O)(=O)N4CCC(C(=O)N5CCCC5)CC4)cc3)no2)cc1C | 1180
33 | CCCn1cc(CCNS(=O)(=O)c2cccc3nsnc23)c2cccnc21 | 791
34 | CCN1CCN(CC2CCN(S(=O)(=O)Cc3ccc(Cl)cc3)CC2)CC1 | 610
35 | CC(C)NC(=O)N1CCN(Cc2nc3cc(C(C)(C)C)ccc3o2)CC1 | 712
36 | COc1ccc(CCNC(=O)CCn2c(=O)sc3ccccc32)cc1OC | 698
37 | Cc1noc(-c2cc(=O)n(CC(=O)Nc3ccccc3Cl)c3ccccc23)n1 | 900
38 | Cc1noc([C@@H]2CN(S(=O)(=O)c3cccs3)C[C@H]2C(N)=O)n1 | 658
39 | COCCn1cc(CCNC(=O)c2cc(F)cc(F)c2)c2cccnc21 | 737
40 | COc1cccc(OCC(=O)N2CC(=O)Nc3ccccc32)c1 | 869
41 | COc1ccc(F)cc1S(=O)(=O)N1CCc2nn(CC3CC3)c(=O)n2CC1 | 834
42 | CCn1c(=O)c(C)nc2cc(C(=O)NCCc3c[nH]c4ccc(Cl)cc34)ccc21 | 833
43 | Cc1cccc(S(=O)(=O)Nc2ccc3c(c2)CCC(=O)N3)c1 | 689
44 | COc1ccc(OC)c(NC(=O)CN2C(=O)C(C)(C)c3cc(C)ccc32)c1 | 915
45 | O=C(Cc1cccs1)NCCN1CCN(c2ccc(Cl)cc2)CC1 | 583
46 | CCn1cc(S(=O)(=O)N2CCC(CCOc3ccccc3F)C2)cn1 (stereo unspecified) | 948

Row | Structure (SMILES) | RP-LC retention time [s]
47 | O=C(c1ccc(Cn2c(=O)c3cccn3c3cccnc32)cc1)N1CCN(c2ccccn2)CC1 | 645
48 | COc1cc2c(cc1OC)CN(C(=O)C1CCCN1S(=O)(=O)c1ccc(F)cc1)CC2 (stereo unspecified) | 775
49 | COc1cc(NS(=O)(=O)c2cc3n(c2)CCCNC3=O)cc(OC)c1 | 639
50 | Cn1nnc2cc(-c3noc(COc4ccc(Cl)cc4)n3)ccc21 | 994
51 | O=C(Nc1cnc(N2CCN(c3ccccc3Cl)CC2)c(C(=O)O)c1)c1cccs1 | 910
52 | Cn1c(=O)c2nc(SCCC(=O)Nc3ccc(Br)cc3F)n(C)c2n(C)c1=O | 806
53 | COc1cc([C@@H]2c3cc4c(cc3[C@H](O)[C@@H](CO)[C@@H]2C(=O)N2CCOCC2)OCO4)cc(OC)c1OC | 632
54 | Nc1ccc(-c2nc3ccccc3s2)cc1 | 803
55 | CC(C)c1ccc(OCC(O)Cn2c(C3CC3)nc3ccccc32)cc1 (stereo unspecified) | 788
56 | CSc1ccc(-c2nc3cnccn3c2Nc2cccc(Cl)c2C)cc1 | 1060
57 | CCc1csc(-c2cn(CC(=O)Nc3ccc(OC)c(Cl)c3)cn2)n1 | 727
58 | Cc1cc(C)c2c(n1)SCC(=O)N2CC(=O)NCCCN(C)Cc1ccccc1 | 587
59 | Cc1nc(C(=O)Nc2ccc(Cl)cc2F)c(C)o1 | 1020
60 | Cc1cc(C)n(-c2cc(NCCNC(=O)c3ccc(F)cc3F)ncn2)n1 | 718
61 | CCOC(=O)N1CCN(c2ncc(S(=O)(=O)c3ccc(C(C)C)cc3)c(N)n2)CC1 | 1030
62 | COc1ccc(OC)c(NC(=O)CN2C(=O)CC(c3ccc(Cl)cc3)=Nc3cccnc32)c1 | 1040
63 | Cc1ccc(-c2cc(=O)n(CC(=O)Nc3nccs3)cn2)cc1 | 691
64 | CSc1ccccc1C(=O)N(Cc1ccsc1)CC(F)(F)F | 987
65 | CCc1nc(-c2csc(S(=O)(=O)N3CCC(C(=O)Nc4ccc(C)cc4)CC3)c2)no1 | 1020
66 | Cc1cc(S(=O)(=O)N2CC(Cc3nncn3C3CCCC3)C2)ccc1Cl | 785
67 | CCC(=O)N(CCCOC)CC(=O)N1CCc2sccc2C1COc1ccccc1F (stereo unspecified) | 912
68 | CCOc1cc(CNc2ccc3[nH]c(=O)[nH]c3c2)cc(Br)c1OCC | 717
69 | O=C(NCCC1=CCCCC1)c1ccc(CN2CC(=O)N3CCCCC3C2=O)cc1 (stereo unspecified) | 680

Row | Structure (SMILES) | RP-LC retention time [s]
70 | O=C(Nc1ccc2c(c1)OCCO2)c1cc2nc(N3CCCCC3)sc2s1 | 1010
71 | CN(C)C[C@@H]1CN(Cc2ccncc2)C[C@H]1NS(=O)(=O)c1ccc(C#N)cc1 | 639
72 | COCc1nn(CC2CC2)c2c1CN(C(=O)Cc1ccccc1)CC2 | 732
73 | O[C@@H]1C[C@@H](c2nnc3n2CCN(Cc2cccc(F)c2)C3)N(Cc2cccnc2)C1 | 588
74 | CCN1C(=O)NC(c2ccc(Cl)cc2)C2=C1CN(CCC(=O)NCCOC)C2=O (stereo unspecified) | 599
75 | CCNC(=O)C1CCN(S(C)(=O)=O)c2cc(C)ccc2O1 (stereo unspecified) | 696
76 | CCOC(=O)C1CCCN(CC(O)COc2ccccc2C(C)=O)C1 (stereo unspecified) | 556
77 | CC(=O)c1ccc(S(=O)(=O)N2CCC(CN3CCCC(C)C3)CC2)cc1 (stereo unspecified) | 634
78 | CCCNC(=O)C1CCCN(c2nc3ncn(CC(=O)Nc4ccc(Cl)cc4)c(=O)c3s2)C1 (stereo unspecified) | 741
79 | CN1CCc2nnc(C3CCCN3C(=O)Nc3cc(Cl)cc(Cl)c3)n2CC1 (stereo unspecified) | 566
80 | COc1ccc(NC(=O)Nc2c(-c3ccncc3)[nH]c3ccc(F)cc23)c(OC)c1 | 683
81 | COC(=O)c1ccc(C(=O)OC)c(NC(=O)CSc2nc(C)cc(C)n2)c1 | 852
82 | Cc1nc(C)c(-c2ccc(SCC(=O)Nc3ccc4c(c3)OCCO4)nn2)s1 | 690
83 | CC1=C(c2cccc(Cl)c2)S(=O)(=O)N=C1N1CCC(NC(=O)C2CCCO2)CC1 (stereo unspecified) | 771
84 | CN(C)S(=O)(=O)c1ccc(-c2nnc(C(=O)NCCCN3CCCC3)o2)cc1 | 593
85 | CCNC(=O)NCc1nc(-c2ccc(Cl)cc2)no1 | 752
86 | O=C(Nc1ccc(F)cc1)c1cnc(-c2ccc(F)cc2)nc1-c1ccncc1 | 898
87 | CC(C)(C)c1csc(-c2csc(S(=O)(=O)NCc3ccc4c(c3)OCO4)c2)n1 | 1170
88 | CCn1c(N2CCCC(C(=O)NCc3ccc(F)cc3)C2)cc(=O)n(C)c1=O (stereo unspecified) | 776
89 | Cc1ccc(Sc2nccnc2N2CCC(C(=O)NCc3ccccc3C)CC2)cc1 | 1150
90 | CS(=O)(=O)c1ccc2nc(NC(=O)c3csc(-n4cccc4)n3)sc2c1 | 849
91 | COc1cc(CNC(=O)CCCC/C=C\C(C)C)ccc1O | 947
